Measured values as given in PMC3339042 (2012).

Legend:
ubiquitin E1 (UBA1) [1] = biological target: T1, ubiquitin E1 (UBA1) (Homo sapiens, UniProt P22314); test: […]-AMP:[α-32P]-ATP exchange TLC assay; type: biochemical
T1 sequence (P22314 2-1058): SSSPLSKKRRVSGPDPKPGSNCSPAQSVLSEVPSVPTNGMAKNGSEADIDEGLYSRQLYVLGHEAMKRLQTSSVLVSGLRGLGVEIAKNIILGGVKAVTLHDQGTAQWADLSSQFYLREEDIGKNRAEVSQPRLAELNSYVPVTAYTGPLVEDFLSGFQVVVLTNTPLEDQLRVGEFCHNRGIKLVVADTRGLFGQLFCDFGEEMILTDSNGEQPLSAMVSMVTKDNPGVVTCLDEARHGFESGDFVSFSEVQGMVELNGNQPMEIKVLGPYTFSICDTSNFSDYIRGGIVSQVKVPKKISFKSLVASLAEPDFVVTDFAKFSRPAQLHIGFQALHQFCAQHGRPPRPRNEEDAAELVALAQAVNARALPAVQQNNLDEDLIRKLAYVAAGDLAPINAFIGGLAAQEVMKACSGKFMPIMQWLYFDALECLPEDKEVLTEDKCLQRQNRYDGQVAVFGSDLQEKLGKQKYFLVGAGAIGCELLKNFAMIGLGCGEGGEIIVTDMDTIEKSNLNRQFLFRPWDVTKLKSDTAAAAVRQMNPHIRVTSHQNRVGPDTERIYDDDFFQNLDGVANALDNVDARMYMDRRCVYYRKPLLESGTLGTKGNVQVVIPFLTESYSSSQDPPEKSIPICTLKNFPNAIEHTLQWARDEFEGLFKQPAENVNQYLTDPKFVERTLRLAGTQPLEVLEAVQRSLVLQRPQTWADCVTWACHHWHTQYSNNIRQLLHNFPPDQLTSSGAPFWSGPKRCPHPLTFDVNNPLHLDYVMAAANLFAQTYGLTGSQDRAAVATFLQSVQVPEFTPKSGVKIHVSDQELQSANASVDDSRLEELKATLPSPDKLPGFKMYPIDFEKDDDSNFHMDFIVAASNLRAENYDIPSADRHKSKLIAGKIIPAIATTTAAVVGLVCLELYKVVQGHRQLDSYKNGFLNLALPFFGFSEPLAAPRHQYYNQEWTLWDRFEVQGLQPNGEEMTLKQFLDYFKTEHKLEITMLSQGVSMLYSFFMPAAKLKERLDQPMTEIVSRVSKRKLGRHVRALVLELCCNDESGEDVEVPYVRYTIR

ubiquitin E1 (UBA1) [2] = biological target: T1, ubiquitin E1 (UBA1); test: E1-ubiquitin thioester gel assay with fluorescein-ubiquitin without E2; type: biochemical

Row | IC50 (ubiquitin E1 (UBA1) [1]) | IC50 (ubiquitin E1 (UBA1) [2]) | Structure (SMILES)
1 | 6.4 µM | – | CCOC(=O)c1ccc(N2NC(=O)C(=Cc3ccc([N+](=O)[O-])o3)C2=O)cc1 [PYR-41]
2 | – | ~9 µM | CCCCCCCCCCNCCSSCc1ccc(Cl)cc1 [compound 1, NSC624206]
